# Reference: patent US12527757B2, “Nanoemulsion of 18BETA-glycyrrhetinic acid” (ATSO CORPORATE AFFAIRS, S.A. DE C.V., priority 2019, dated 2026)
# Read-outs that look alike come from different tables or passages of the source.
# Assays:
# HeLa cells [1] = assay: Cell survival inhibition assay, HeLa; assay type: cell-based; conditions: HeLa (HPV-18), 24 hours, 10-100 μM
# Description: (§1) In this sense, a cell survival inhibition assay of different cell lines was carried out when exposed for hours 24 to one of the two drugs from FIG. 1. In this experiment, four cell lines were tested: HeLa, which are cell lines representative of cancer and HPV-18 infection, SiHa which are cells representative of cervical cancer with HPV-16 infection, C-33A which are cells representative of HPV-negative cervical carcinoma, and HaCaT, which are cancer and infection negative cells. The experiment consisted of exposing cells of the different cell lines to different concentrations of both drugs for 24 hours (10-100 μM) going in steps of 10 μM each.
# SiHa cells = assay: Cell survival inhibition assay, SiHa; assay type: cell-based; conditions: SiHa (HPV-16), 24 hours, 10-100 μM
# Description: as §1
# C-33A cells = assay: Cell survival inhibition assay, C-33A; assay type: cell-based; conditions: C-33A (HPV-negative cervical carcinoma), 24 hours, 10-100 μM
# Description: as §1
# HeLa cells [2] = assay: Alkaline comet assay (single cell electrophoresis), HeLa; assay type: cell-based; conditions: HeLa cancer cells
# Description: (§2) This difference in drug performance can be explained by the difference in their mechanisms of action. […] The comet assay is an experiment that allows to see if the drug has a cytotoxic effect related to DNA fragmentation of the cells. This difference is visualized by the size of the “tails” of the “comets”, which is the fragmented DNA from the cells under study.
# (§3) An analysis with a Wilcoxon test was performed to verify whether the means in the percentage of DNA in the comet tails of the different cell lines differ.
# (§4) FIG. 2 depicts representative tail-DNA percentage data. (A) Microphotographs of the alkaline comet assay showing representative images of the CC cell lines and their negative control with their 18β and GA treatments of HeLa (HPV 18 cervical cancer) and HaCaT (HPV negative immortalized keratinocyte) (B) Comet assay data plot of Tail-DNA percentage **P<0.43 for HaCaT and P<2^−16. Larger comets for 18β treatment are observed.
# HaCaT cells = assay: Alkaline comet assay (single cell electrophoresis), HaCaT; assay type: cell-based
# Description: as §2, §3, §4
# [3] = cited from earlier work
# [4] = cited from earlier work; remark: listed apart in the source
# Rotavirus = conditions: infected cultures; cited from earlier work
# Hepatitis C virus (HCV) = conditions: by preventing the release of infectious viral particles; cited from earlier work
SMILES,inhibition of cell survival (HeLa cells [1]),inhibition of cell survival (SiHa cells),inhibition of cell survival (C-33A cells),DNA fragmentation (comet tails) (HeLa cells [2]),DNA fragmentation (comet tails) (HaCaT cells),log P [3],solubility in water [4],interference with Rotavirus replication (Rotavirus),DNA fragmentation (comet tails) (HaCaT cells; HaCaT healthy cells),reduction of Hepatitis C virus (HCV) titers (Hepatitis C virus (HCV)) [%]
"CC1(C)[C@@H](O)CC[C@]2(C)[C@H]3C(=O)C=C4[C@@H]5C[C@@](C)(C(=O)O)CC[C@]5(C)CC[C@@]4(C)[C@]3(C)CC[C@@H]12 [Example 18β-GA, 18β-glycyrrhetinic acid]",greater effect than GA,greater effect than GA,greater effect than GA,considerable DNA fragmentation,much less fragmentation,6.574,insoluble in water,up to 99%,,
"CC1(C)[C@@H](O[C@H]2O[C@H](C(=O)O)[C@@H](O)[C@H](O)[C@H]2O[C@@H]2O[C@H](C(=O)O)[C@@H](O)[C@H](O)[C@H]2O)CC[C@]2(C)[C@H]3C(=O)C=C4[C@@H]5C[C@@](C)(C(=O)O)CC[C@]5(C)CC[C@@]4(C)[C@]3(C)CC[C@@H]12 [GA, Glycyrrhizic acid]",minor effect,no effect,minor effect,do not present this fragmentation,,,,,do not present this fragmentation,50
